Measured values as given in US10093898B2, “Purification of functional human astrocytes” (The Board of Trustees of the Leland Stanford Junior …, priority 2015, dated 2018).

System: purified human astrocytes
Assay: Calcium imaging of purified human astrocytes (Fluo-4 AM) after ATP or glutamate stimulation
Assay type: cell-based
Settings: for calcium response (increased intracellular calcium concentrations): 30 nM-670 μM
Method: Therefore, we performed calcium imaging on purified human astrocytes after loading cells grown in vitro with the calcium sensitive dye Fluo-4 AM.
Calcium imaging. Purified human astrocytes were plated at 100,000 cells/imaging chamber (MatTek, P35GC-1.0-14-C) coated with poly-d-lysine. Cells were grown for at least 5 days before imaging. Cells were incubated for 15 minutes with 2 μM Fluo 4 AM (Invitrogen, F-14201) and then washed 3 times with PBS and replaced with 1.5 ml of growth medium per chamber. The cells were then let to recover from mechanical stimulation for 3 minutes and then imaged in a humidified, temperature-controlled chamber with a 40× oil objective. Images were taken at 0.7 s intervals and analyzed with ImageJ.

Compound	calcium response (increased intracellular calcium concentrations) (fetal human astrocytes)	temporal pattern of calcium response (postnatal human astrocytes)	calcium response (increased intracellular calcium concentrations) (postnatal human astrocytes)	time for intracellular calcium to decrease to baseline levels (postnatal human astrocytes, independent of concentration)
Nc1ncnc2c1ncn2[C@@H]1O[C@H](COP(=O)(O)OP(=O)(O)OP(=O)(O)O)[C@@H](O)[C@H]1O [ATP]	responded	asynchronous oscillatory response	responded to both	
N[C@@H](CCC(=O)O)C(=O)O [glutamate]		synchronous non-oscillatory response	responded to both	≤ 10 s
